Structures are written as SMILES.

GTPase HRas [G12V], sequence (P01112 whole entry G12V, looked up): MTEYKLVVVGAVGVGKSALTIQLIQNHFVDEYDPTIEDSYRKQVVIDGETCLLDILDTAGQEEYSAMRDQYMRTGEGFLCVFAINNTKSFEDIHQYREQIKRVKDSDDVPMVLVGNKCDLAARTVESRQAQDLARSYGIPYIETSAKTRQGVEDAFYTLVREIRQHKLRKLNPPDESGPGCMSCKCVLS

In the test the target is GTPase HRas [G12V] (Homo sapiens, UniProt P01112, G12V). The test can be described thus: In Vitro Ras-Raf Binding Inhibitory Activity Assay. On the procedure:
The in vitro Ras-Raf binding inhibitory activity of the compound of the present invention was evaluated by an ELISA method described below. GST-c-Raf-1 RBD diluted with a Ras-Raf binding buffer (50 mM Tris-HCl pH7.4, 150 mM NaCl, 5 mM MgCl2, 1 mM EDTA, and 1% Triton-X100) was added to each well of a glutathione-coated 96-well plate (Thermo Fisher Scientific.), and was incubated at 30° C. for 1 hour, to immobilize Raf on the well. The unbound free Raf was eliminated by washing the well with the Ras-Raf binding buffer three times. Subsequently, GTPTS-bound HRasG12V diluted with the Ras-Raf binding buffer and each compound solution (final DMSO concentration: 10%) were applied to each well, and the resulting mixture was then incubated at 30° C. for 1 hour, so that Ras and Raf were allowed to bind to each other. Thereafter, the plate was washed with the Ras-Raf binding buffer twice, and was then subjected to a blocking treatment at room temperature for 20 minutes, using TBS-Tween {10 mM Tris-HCl pH 7.4, 150 mM NaCl, and 0.05% (w/v) Tween-20}-5% (w/v) bovine serum albumin (BSA). After that, an anti-HRas antibody (C-20, Santa Cruz) or an anti-HRas antibody (259, Santa Cruz), which had been 1000 times diluted with TBS-Tween-5% BSA, was added to the reaction mixture, and incubated at room temperature for 1 hours. After the treatment with the primary antibody, the plate was washed with TBS-Tween-5% BSA three times, and a horseradish peroxidase-labeled secondary antibody against rabbit immunoglobulin G (GE Healthcare) of 1000 times diluted with TBS-Tween-5% BSA, was added to the plate, followed by incubation at room temperature for 1 hour. After the treatment with the secondary antibody, the plate was washed with TBS-Tween-5% BSA three times, and a substrate solution (TMB) was then added to the plate, followed by incubation at room temperature for 15 minutes for coloration. Finally, 2 M H2SO4 was added to stop color development (coloration reaction kit: Nacalai Tesque).
In turn, `CC(=O)N1/C(=C\c2ccc3cc(C(=O)N4CC(C)OC(C)C4)ccc3n2)C(=O)c2ccccc21` (stereo not given) [US20250091994, Example 44] displayed an IC50 of 960 nM.
The result for `COc1cc(/C=C2/C(=O)c3cc(F)ccc3N2C(C)=O)ccc1OCC(=O)N1CCOCC1` [US20250091994, Example 50] reads 12000 nM; that for `COc1cc(/C=C2/C(=O)c3ccccc3N2C(C)=O)ccc1OCC(=O)N1CCOCC1` [US20250091994, Example 2], 7900 nM; that for `CC(=O)N1/C(=C\c2ccc3cc(C#N)ccc3n2)C(=O)c2ccccc21` [US20250091994, Example 34], 2800 nM.
For the compound `CC(=O)N1/C(=C\c2ncc(C(=O)N3CCOCC3)s2)C(=O)c2ccccc21` [US20250091994, Example 38], the IC50 stood at 3700 nM.
For the compound `CC(=O)N1/C(=C\c2nc(-c3cnn(C)c3)c3ccccc3n2)C(=O)c2ccccc21` [US20250091994, Example 203], the IC50 worked out at 600 nM.
In the case of `COc1cc(/C=C2/C(=O)c3ccccc3N2C(=O)c2ccccc2)ccc1OCC(N)=O` [US20250091994, Example 49], the IC50 came out at 13000 nM.
Then `CC(=O)N1/C(=C\c2cc(N3CCC(C#N)CC3)c3cc(C(=O)N4CCOCC4)ccc3n2)C(=O)c2ccccc21` [US20250091994, Example 87], with 2100 nM.
Consider `CCCCOc1cc(/C=C2/C(=O)c3ccccc3N2C(C)=O)nc2ccc(C(=O)N3CCOCC3)cc12` [US20250091994, Example 84], for which the IC50 was found to be 580 nM.
Then `COc1cc(/C=C2/C(=O)c3ccccc3N2C(C)=O)ccc1OCC(=O)Nc1ccccc1` [US20250091994, Example 15], with 7300 nM; and `COCC(O)CN1CCN(C(=O)c2ccc3nc(/C=C4/C(=O)c5ccccc5N4C(C)=O)ccc3c2)CC1` (stereo not given) [US20250091994, Example 42], with 2800 nM; and `COc1cc(C=C2C(=O)c3cccc(F)c3N2C(C)=O)ccc1OCC(=O)N1CCOCC1` [US20250091994, Example 105], with 20000 nM.
The result for `CC(=O)N1C(=Cc2cc(-c3ccc4c(c3)CCN(C)C4)c3cc(C(=O)N4CCOCC4)ccc3n2)C(=O)c2ccccc21` [US20250091994, Example 173] reads 400 nM.
Then `CC(=O)N1/C(=C\c2cc(-c3cn(C)cn3)c3cc(C(=O)N4CCOCC4)ccc3n2)C(=O)c2ccccc21` [US20250091994, Example 192], with 800 nM.
For `CC(=O)N1C(=Cc2cc(-c3cccc4ccccc34)c3cc(C(=O)N4CCOCC4)ccc3n2)C(=O)c2ccccc21` [US20250091994, Example 118], the IC50 worked out at 730 nM.
`CC(=O)N1C(=Cc2cc(CN3CCOCC3=O)c3ccccc3n2)C(=O)c2ccccc21` [US20250091994, Example 183] displayed an IC50 of 1400 nM.
For `COCCN1CCN(C(=O)c2ccc3nc(/C=C4/C(=O)c5ccccc5N4C(C)=O)ccc3c2)CC1` [US20250091994, Example 116], the IC50 came out at 8400 nM.
The result for `COc1cc(C=C2C(=O)c3c(F)cccc3N2C(C)=O)ccc1OCC(=O)N1CCOCC1` [US20250091994, Example 104] reads 9000 nM; that for `CC(=O)N1/C(=C/c2nc3ccc(/C=C/S(=O)(=O)N4CCOCC4)cc3s2)C(=O)c2ccccc21` [US20250091994, Example 43], 7100 nM.
Then `CC(=O)N1/C(=C\c2cc(-c3ccccc3-c3ccccc3)c3cc(C(=O)N4CCN(C)CC4)ccc3n2)C(=O)c2ccccc21` [US20250091994, Example 140], with 1300 nM.
The result for `COc1cc(/C=C2/C(=O)c3ccccc3N2C(C)=O)ccc1NC(=O)CN1CCOCC1` [US20250091994, Example 27] reads 2700 nM; that for `CC(=O)N1/C(=C\c2cc(-c3ccncc3)c3cc(C(=O)N4CCOCC4)ccc3n2)C(=O)c2ccccc21` [US20250091994, Example 184], 900 nM.
Turning to `CC(=O)N1/C(=C\c2cc(On3nnc4cccnc43)c3cc(C(=O)N4CCOCC4)ccc3n2)C(=O)c2ccccc21` [US20250091994, Example 112], the IC50 is 550 nM.
The result for `CC(=O)N1/C(=C\c2cc(-c3ccccc3-c3ccccc3)c3cc(C(=O)N4CCC(C(=O)O)CC4)ccc3n2)C(=O)c2ccccc21` [US20250091994, Example 142] reads 800 nM.
`CC(=O)N1/C(=C\c2cc(-c3ncccn3)c3cc(C(=O)N4CCOCC4)ccc3n2)C(=O)c2ccccc21` [US20250091994, Example 189] had a half-inhibitory concentration (IC50) of 1500 nM.
Consider `COc1cc(/C=C2/C(=O)c3ccccc3N2C(C)=O)ccc1CCC(N)=O` [US20250091994, Example 31], for which the IC50 is 13000 nM.
The result for `CC(=O)N1CCc2cc(-c3cc(/C=C4/C(=O)c5ccccc5N4C(C)=O)nc4ccc(CNC5CCOCC5)cc34)ccc2C1` [US20250091994, Example 209] reads 400 nM.
As to `CC(=O)N1/C(=C\c2ccc3cc(CN(C4CCOCC4)S(C)(=O)=O)ccc3n2)C(=O)c2ccccc21` [US20250091994, Example 76], the IC50 came out at 1600 nM.
Then `CC(=O)N1CCc2ccc(-c3c(C(=O)N4CCOCC4)ccc4nc(/C=C5/C(=O)c6ccccc6N5C(C)=O)ccc34)cc2C1` [US20250091994, Example 201], with 800 nM; and `CC(=O)N1/C(=C/c2nc3ccc(C(=O)N4CC(C)OC(C)C4)cc3s2)C(=O)c2ccccc21` (stereo not given) [US20250091994, Example 101], with 780 nM.
Then `CC(=O)N1C(=Cc2ccc3cc(/C=C/C(=O)NC4CCN(C5COC5)CC4)ccc3n2)C(=O)c2ccccc21` [US20250091994, Example 79], with 1100 nM; and `CC(=O)N1/C(=C\c2ccc3cc(C(=O)N4CCC(C(=O)O)CC4)ccc3n2)C(=O)c2ccccc21` [US20250091994, Example 129], with 1500 nM.
Compound `CC(=O)N1C(=Cc2cc(C(=O)N3CCN(C4COC4)CC3)c3ccccc3n2)C(=O)c2ccccc21` [US20250091994, Example 204] displayed an IC50 of 1800 nM.
Consider `CC(=O)N1C(=Cc2ccc3cc(C(=O)N4CCOCC4)ccc3c2)C(=O)c2ccccc21` [US20250091994, Example 66], for which the 50% inhibitory concentration (IC50) came to 2300 nM.
Then `CC(=O)N1/C(=C/c2cc(-c3ccnc4ccccc34)c3cc(C(=O)N4CCOCC4)ccc3n2)C(=O)c2ccccc21` [US20250091994, Example 117], with 1100 nM; and `COc1cc(/C=C2/C(=O)c3ccccc3N2C(C)=O)ccc1OCS(C)(=O)=O` [US20250091994, Example 24], with 2100 nM.
Take `CC(=O)N1CCN(c2cc(/C=C3/C(=O)c4ccccc4N3C(C)=O)nc3ccc(C(=O)N4CCOCC4)cc23)CC1` [US20250091994, Example 90]: the IC50 is 1400 nM.
Compound `CC(=O)N1/C(=C\c2cc(N=[N+]=[N-])c3cc(C(=O)N4CCOCC4)ccc3n2)C(=O)c2ccccc21` [US20250091994, Example 81] registered an IC50 of 1100 nM.
In turn, `COc1cc(/C=C2/C(=O)c3ccccc3N2C(C)=O)ccc1OC[S+](C)[O-]` (stereo not given) [US20250091994, Example 25] had an IC50 of 5900 nM.
Compound `CC(=O)N1/C(=C\c2ccc3cc(C(=O)O)ccc3n2)C(=O)c2ccccc21` [US20250091994, Example 127] displayed an IC50 of 2100 nM.
Then `CC(=O)N1C(=Cc2cc(-c3cccnc3-c3ccccc3)c3cc(C(=O)N4CCOCC4)ccc3n2)C(=O)c2ccccc21` [US20250091994, Example 94], with 660 nM; and `CC(=O)N1/C(=C/c2nc3ccc(CNS(C)(=O)=O)cc3s2)C(=O)c2ccccc21` [US20250091994, Example 56], with 570 nM.
In turn, `COc1cc(/C=C2/C(=O)c3ccccc3N2C(C)=O)ccc1OCC(=O)N1CCCC1` [US20250091994, Example 14] returned an IC50 of 5700 nM.
`CC(=O)N1CCc2ccc(-c3cc(/C=C4/C(=O)c5ccccc5N4C(C)=O)nc4ccc(CNC5CCOCC5)cc34)cc2C1` [US20250091994, Example 211] displayed an IC50 of 600 nM.
Then `CC(=O)NCc1ccc2nc(/C=C3/C(=O)c4ccccc4N3C(C)=O)ccc2c1` [US20250091994, Example 63], with 2000 nM; and `CC(=O)N1C(=Cc2nc3cc(/C=C/C(=O)N4CCOCC4)ccc3s2)C(=O)c2ccccc21` [US20250091994, Example 109], with 460 nM.
Then `CC(=O)N1/C(=C\c2cc(C#N)c3cc(C(=O)N4CCOCC4)ccc3n2)C(=O)c2ccccc21` [US20250091994, Example 86], with 1800 nM; and `CC(=O)N1/C(=C/c2cc(-c3cccc4[nH]ncc34)c3cc(C(=O)N4CCOCC4)ccc3n2)C(=O)c2ccccc21` [US20250091994, Example 145], with 600 nM.
`CC(=O)N1/C(=C/c2nc3ccc(/C=C/C(=O)N4CCOCC4)cc3s2)C(=O)c2ccccc21` [US20250091994, Example 108] displayed an IC50 of 2600 nM.
The compound `CC(=O)N1/C(=C\c2ccc3cc(CN(C(C)=O)C4CCOCC4)ccc3n2)C(=O)c2ccccc21` [US20250091994, Example 75] had an IC50 of 2100 nM.

In general, IC50 refers to the point on the concentration scale where inhibition reaches its midpoint. A low value points to inhibition by little substance.

These data come from BindingDB's records for patent US20250091994 (Kobe University, 2025).
